Measured values: US20240226115A1, “AXL INHIBITOR COMPOUNDS” (ARCUS BIOSCIENCES, INC., priority 2021, published 2024)

Target: T1, Axl (Homo sapiens, UniProt P30530)
T1 sequence (P30530 26-894): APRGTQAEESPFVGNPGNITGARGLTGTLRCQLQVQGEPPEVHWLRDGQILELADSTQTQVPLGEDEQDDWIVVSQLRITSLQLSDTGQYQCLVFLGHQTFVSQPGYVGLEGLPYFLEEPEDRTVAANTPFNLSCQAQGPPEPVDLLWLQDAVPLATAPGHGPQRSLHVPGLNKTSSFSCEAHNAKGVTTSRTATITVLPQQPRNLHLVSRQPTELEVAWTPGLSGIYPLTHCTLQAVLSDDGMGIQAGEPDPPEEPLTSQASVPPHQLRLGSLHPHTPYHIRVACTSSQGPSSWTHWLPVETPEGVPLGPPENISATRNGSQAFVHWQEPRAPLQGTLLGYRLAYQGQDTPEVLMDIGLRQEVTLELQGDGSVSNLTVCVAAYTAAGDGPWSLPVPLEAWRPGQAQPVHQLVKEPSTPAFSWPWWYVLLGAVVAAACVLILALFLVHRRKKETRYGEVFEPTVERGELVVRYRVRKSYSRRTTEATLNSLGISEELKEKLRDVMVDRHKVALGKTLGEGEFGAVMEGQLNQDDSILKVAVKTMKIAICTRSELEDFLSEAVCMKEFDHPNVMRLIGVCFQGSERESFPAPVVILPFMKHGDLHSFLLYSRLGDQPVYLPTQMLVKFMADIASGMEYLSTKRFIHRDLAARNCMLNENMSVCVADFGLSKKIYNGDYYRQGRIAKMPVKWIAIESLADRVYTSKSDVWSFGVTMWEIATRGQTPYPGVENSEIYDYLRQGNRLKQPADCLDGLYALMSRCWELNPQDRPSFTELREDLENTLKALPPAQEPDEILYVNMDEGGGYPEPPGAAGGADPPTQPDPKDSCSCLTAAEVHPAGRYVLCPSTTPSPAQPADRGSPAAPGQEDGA
Experiment: Axl NanoBRET intracellular kinase assay (Cell Binding)
Set-up: host or cells: HEK-293
Details: HEK-293 cells transfected with Axl-NanoLuc fusion vector; displacement of K-5 NanoBRET tracer
Experimental: Axl NanoBRET™ intracellular kinase assay (Promega, N2540) was performed according to manufacturer's recommendation. In brief, HEK-293 cells are transiently transfected with Axl-NanoLuc fusion vector (Promega, NV1071), utilizing Fugene HD transfection reagent (Promega, E2311) a day before experiment following manufacturer's recommendation.
The day of the assay, the cells were collected and resuspended in Opti-MEM media (ThermoFisher, 31985070) at 2e5 cells/mL concentration. Testing compounds were serial diluted and dispensed into a white 384 well polystyrene plate at 200 nL in 100% DMSO. 40 μL of resuspended cells is then added per well for a final condition of 8K cells/well with 0.5% DMSO. After one-hour compound pre-incubation at 37° C. and 5% CO2, cells were further incubated with 0.35 μM K-5 NanoBRET tracer for two-hours at 37° C. and 5% CO2. […] of 3× substrate plus Inhibitor solution was prepared according to kits manual and added to the cells followed by a 30 second pulse centrifugation spin. The plate was then immediately read utilizing an Envision (Perkin Elmer) plate reader. The BRET signal is measured by taking the ratio of the emissions reading at 610 nm and 450 nm. Compound binding is based on the decrease BRET signal caused by the displacement of the K-5 tracer. […] IC50 value of compounds was determined by 4-parameter non-linear regression fitting of percent activity in GraphPad Prism software.

| IC50 [nM] | Structure (SMILES) |
| --- | --- |
| 100 to 1000 | O=C1NCCOc2cc(-c3n[nH]c4ncc(-c5ccc6c(n5)CCC(N5CCCC5)CC6)cc34)ccc21 (stereo not drawn) [Example 63, 8-{5-[7-(Pyrrolidin-1-yl)-5H,6H,7H,8H,9H-cyclohepta[b]pyridin-2-yl]-1H-pyrazolo[3,4-b]pyridin-3-yl}-2,3,4,5-tetrahydro-1,4-benzoxazepin-5-one] |
| < 100 | C[C@@H]1CCCN1C1CCc2ccc(-c3cnc4[nH]nc(-c5ccc6c(c5)OCCNS6(=O)=O)c4c3)cc2CC1 (stereo partly drawn) [Example 66, 7-(5-{7-[(2R)-2-Methylpyrrolidin-1-yl]-6,7,8,9-tetrahydro-5H-benzo[7]annulen-2-yl}-1H-pyrazolo[3,4-b]pyridin-3-yl)-3,4-dihydro-2H-5,12,2-benzoxathiazepine-1,1-dione] |
| 100 to 1000 | O=C1NCCOc2cc(-c3n[nH]c4ncc(-c5ccc6c(c5)CCNC6)cc34)ccc21 [Example 54, 8-(5-(1,2,3,4-Tetrahydroisoquinolin-6-yl)-1H-pyrazolo[3,4-b]pyridin-3-yl)-3,4-dihydrobenzo[f][1,4]oxazepin-5(2H)-one] |
| < 100 | Cc1c(-c2n[nH]c3ncc(-c4ccc5c(c4)CCC(N4CCC[C@H]4C)CC5)cc23)ccc2c1OCCNC2=O (stereo partly drawn) [Example 41, 9-Methyl-8-(5-{7-[(2R)-2-methylpyrrolidin-1-yl]-6,7,8,9-tetrahydro-5H-benzo[7]annulen-2-yl}-1H-pyrazolo[3,4-b]pyridin-3-yl)-2,3,4,5-tetrahydro-1,4-benzoxazepin-5-one] |
| < 100 | C[C@@H]1CCCN1C1CCc2ccc(-c3cnc4[nH]nc(-c5ccc6c(c5)OCCNC6=O)c4c3)cc2CC1 (stereo partly drawn) [Example 44, 8-(5-{7-[(2R)-2-Methylpyrrolidin-1-yl]-6,7,8,9-tetrahydro-5H-benzo[7]annulen-2-yl}-1H-pyrazolo[3,4-b]pyridin-3-yl)-2,3,4,5-tetrahydro-1,4-benzoxazepin-5-one] |
| < 100 | C[C@@H]1CCCN1C1CCc2ccc(-c3cnc4[nH]nc(-c5ccc6c(c5)OCC5(CC5)NC6=O)c4c3)cc2CC1 (stereo partly drawn) [Example 36, 8-(5-{7-[(2R)-2-Methylpyrrolidin-1-yl]-6,7,8,9-tetrahydro-5H-benzo[7]annulen-2-yl}-1H-pyrazolo[3,4-b]pyridin-3-yl)-4,5-dihydro-2H-spiro[1,4-benzoxazepine-3,1′-cyclopropan]-5-one] |
| < 100 | O=C1NCCOc2cc(-c3n[nH]c4ncc(-c5ccc6c(c5)CC[C@@H](N5CCCC5)CC6)cc34)ccc21 (single isomer, unassigned) [Example 57] |
| < 100 | C[C@@H]1CNC(=O)c2ccc(-c3n[nH]c4ncc(-c5ccc6c(c5)CCC(N5CCC[C@H]5C)CC6)cc34)cc2O1 (stereo partly drawn) [Example 59, (2R)-2-Methyl-8-(5-{7-[(2R)-2-methylpyrrolidin-1-yl]-6,7,8,9-tetrahydro-5H-benzo[7]annulen-2-yl}-1H-pyrazolo[3,4-b]pyridin-3-yl)-2,3,4,5-tetrahydro-1,4-benzoxazepin-5-one] |
| 100 to 1000 | O=C1NCCOc2cc(-c3n[nH]c4ncc(-c5ccc6c(c5)CCNCC6)cc34)ccc21 [Example 53, 8-(5-(2,3,4,5-Tetrahydro-1H-benzo[d]azepin-7-yl)-1H-pyrazolo[3,4-b]pyridin-3-yl)-3,4-dihydrobenzo[f][1,4]oxazepin-5(2H)-one] |
| < 100 | C[C@@H]1CCCN1C1CCc2ccc(-c3cnc4[nH]nc(-c5ccc6c(c5)O[C@@H](C)CNC6=O)c4c3)cc2CC1 (stereo partly drawn) [Example 62, (2S)-2-Methyl-8-(5-{7-[(2R)-2-methylpyrrolidin-1-yl]-6,7,8,9-tetrahydro-5H-benzo[7]annulen-2-yl}-1H-pyrazolo[3,4-b]pyridin-3-yl)-2,3,4,5-tetrahydro-1,4-benzoxazepin-5-one] |

Continued, molecule first:

| Structure (SMILES) | IC50 [nM] |
| --- | --- |
| CC1(O)CCCCc2cc(-c3n[nH]c4ncc(-c5ccc6c(c5)CCN(C5CCCC5)CC6)cc34)ccc21 (stereo not drawn) [Example 27, 2-[5-(3-Cyclopentyl-2,3,4,5-tetrahydro-1H-3-benzazepin-7-yl)-1H-pyrazolo[3,4-b]pyridin-3-yl]-5-methyl-6,7,8,9-tetrahydro-5H-benzo[7]annulen-5-ol] | 100 to 1000 |
| O=C1NCCOc2cc(-c3n[nH]c4ncc(-c5ccc6c(c5)CCC(N[C@H]5CCOC5)C6)cc34)ccc21 (stereo partly drawn) [Example 4, 8-[5-(6-{[(3S)—Oxolan-3-yl]amino}-5,6,7,8-tetrahydronaphthalen-2-yl)-1H-pyrazolo[3,4-b]pyridin-3-yl]-2,3,4,5-tetrahydro-1,4-benzoxazepin-5-one] | < 100 |
| COCCN1CCc2ccc(-c3cnc4[nH]nc(-c5ccc6c(c5)OCCNC6=O)c4c3)cc2CC1 [Example 15, 8-(5-(3-(2-Methoxyethyl)-2,3,4,5-tetrahydro-1H-benzo[d]azepin-7-yl)-1H-pyrazolo[3,4-b]pyridin-3-yl)-3,4-dihydrobenzo[f][1,4]oxazepin-5(2H)-one] | < 100 |
| O=C1NCCOc2cc(-c3n[nH]c4ncc(-c5ccc6c(c5)CCN(C5CC5)C6)cc34)ccc21 [Example 21, 8-(5-(2-Cyclopropyl-1,2,3,4-tetrahydroisoquinolin-6-yl)-1H-pyrazolo[3,4-b]pyridin-3-yl)-3,4-dihydrobenzo[f][1,4]oxazepin-5(2H)-one] | 100 to 1000 |
| CC[C@@H]1CCCN1C1CCc2ccc(-c3cnc4[nH]nc(-c5ccc6c(c5)OCCNC6=O)c4c3)cc2CC1 (stereo partly drawn) [Example 25, 8-(5-{7-[(2R)-2-Ethylpyrrolidin-1-yl]-6,7,8,9-tetrahydro-5H-benzo[7]annulen-2-yl}-1H-pyrazolo[3,4-b]pyridin-3-yl)-2,3,4,5-tetrahydro-1,4-benzoxazepin-5-one] | < 100 |
| CC(C)(O)C(=O)N1CCc2ccc(-c3cnc4[nH]nc(-c5ccc6c(c5)OCCNC6=O)c4c3)cc2CC1 [Example 19, 8-(5-(3-(2-Hydroxy-2-methylpropanoyl)-2,3,4,5-tetrahydro-1H-benzo[d]azepin-7-yl)-1H-pyrazolo[3,4-b]pyridin-3-yl)-3,4-dihydrobenzo[f][1,4]oxazepin-5(2H)-one] | 100 to 1000 |
| O=C1NCCOc2cc(-c3n[nH]c4ncc(-c5ccc6c(c5)CCN(C5CCCC5)C6)cc34)ccc21 [Example 9, 8-(5-(2-Cyclopentyl-1,2,3,4-tetrahydroisoquinolin-6-yl)-1H-pyrazolo[3,4-b]pyridin-3-yl)-3,4-dihydrobenzo[f][1,4]oxazepin-5(2H)-one] | < 100 |
| CC(C)C(=O)N1CCc2ccc(-c3cnc4[nH]nc(-c5ccc6c(c5)OCCNC6=O)c4c3)cc2CC1 [Example 16, 8-{5-[3-(2-Methylpropanoyl)-2,3,4,5-tetrahydro-1H-3-benzazepin-7-yl]-1H-pyrazolo[3,4-b]pyridin-3-yl}-2,3,4,5-tetrahydro-1,4-benzoxazepin-5-one] | 100 to 1000 |
| CC1(C)NS(=O)(=O)c2cc(-c3n[nH]c4ncc(-c5ccc6c(c5)CCC(N5CCCC5)CC6)cc34)ccc21 (stereo not drawn) [Example 32, 3,3-Dimethyl-6-{5-[7-(pyrrolidin-1-yl)-6,7,8,9-tetrahydro-5H-benzo[7]annulen-2-yl]-1H-pyrazolo[3,4-b]pyridin-3-yl}-2,3-dihydro-1λ^6,2-benzothiazole-1,1-dione] | < 100 |
| CC1(O)CCCOc2cc(-c3n[nH]c4ncc(-c5ccc6c(c5)CCN(C5CCCC5)CC6)cc34)ccc21 (stereo not drawn) [Example 28, (8-[5-(3-Cyclopentyl-2,3,4,5-tetrahydro-1H-3-benzazepin-7-yl)-1H-pyrazolo[3,4-b]pyridin-3-yl]-5-methyl-2,3,4,5-tetrahydro-1-benzoxepin-5-ol)] | 100 to 1000 |
| O=C1NCCOc2cc(-c3n[nH]c4ncc(-c5ccc6c(c5)CN(C5CCCC5)CC6)cc34)ccc21 [Example 10, 8-(5-(2-Cyclopentyl-1,2,3,4-tetrahydroisoquinolin-7-yl)-1H-pyrazolo[3,4-b]pyridin-3-yl)-3,4-dihydrobenzo[f][1,4]oxazepin-5(2H)-one] | 100 to 1000 |
